Numbers after ± are expanded uncertainties.
Assays:
[1] = Molar enthalpy of transition or fusion; conditions: Crystal; DSC
[2] = Crystal; DTA

Molar enthalpy of transition or fusion [1]: 15.4 ± 0.693 kcal/mol
Normal melting temperature [2]: 190.09 ± 1.1 °C
SMILES: CCCCCCOC(=O)NC(=N)c1ccc(NCc2nc3cc(C(=O)N(CCC(=O)OCC)c4ccccn4)ccc3n2C)cc1.CS(=O)(=O)O [Dabigatran etexilate mesylate]
